# Results reported in patent US20130123618A1, “Imaging Agents” (priority 2008, published 2013).
# Key:
# [1] = tested on: U87 Human Glioma cells; assay: in vitro amino acid uptake in U87 cells; assay type: cell-based
# Text: (§1) Compounds have been evaluated in vitro for tumor binding specificity (i.e. uptake cells) using a variety of tumor cell lines available in the art, along with reference compounds such as Me-AlB and BCH. Detailed description of these assays can be found in Martarello et al. (2002) Journal of Medicinal Chemistry, 45:2250-2259 and McConathy et al. (2003) Nuclear Medicine and Biology, 30:477-490. These so called “amino acid uptake studies” are typically carried out with radiolabeled compounds in at least five phenotypically different human tumor cell lines (e.g., A549 lung carcinoma, MB468 breast carcinoma, DU145 prostate carcinoma-androgen independent, LnCap-androgen dependent, SKOV3 ovarian carcinoma, U87 glial blastoma, MIA PaCa-2 pancreas carcinoma, MDA MB231 breast carcinoma). These tumor cell lines can be grown either in vitro or in vivo with severe combined immunodeficiency (SCID) mice as a host. The afore-mentioned tumor cell lines are available at the Winship Cancer Institute of Emory University.
# (§2) For the in vitro amino acid uptake studies, all cells can be grown to monolayer confluency in T-175 culture flasks [Corning, Corning, N.Y.] (approx. 1×10^8 cells/flask) in Dulbecco's Modified Eagle's Medium (DMEM) [Sigma, St. Louis, Mo.] in a humidified incubator (37° C., 5% CO2/95% air). […]
# (§3) In the in vitro studies the uptake rate of each amino acid compound is measured in each tumor line, as well as the dominant transport mechanisms of each tumor cell line. After trypsinization, cells are resuspended in serum-free media, then counted on a hemocytometer, with viability assessed through Trypan blue staining. […] The vials are placed in a Cobra-II gamma counter (Packard, Meriden, Conn.), with the activity per cell number determined. […] Saline washes are performed as described above, and the filtered cells' radioactivity determined on the gamma counter. […]
# (§4) The uptake of all compounds were measured in human and rat cancer cell lines and the dominant transport (“A” and “L”) mechanism of each culture were determined. […]
# [2] = tested on: MDA MB468 Human Breast carcinoma cells; assay: in vitro amino acid uptake in MDA MB468 cells; assay type: cell-based
# Text: as §1, §2, §3, §4
# [3] = tested on: A549, human lung cancer cells implanted in flanks; assay: tissue distribution in SCID mice bearing A549 tumors; assay type: in vivo; settings: for tissue distribution, blood / tissue distribution, bone / tissue distribution, brain / tissue distribution, heart / tissue distribution, kidney / tissue distribution, liver / tissue distribution, lung / tissue distribution, muscle / tissue distribution, pancreas / tissue distribution, spleen / tissue distribution, tumor: A549 tumor-bearing SCID mice, tail vein, ave
# Method: For the in vitro amino acid uptake studies, all cells can be grown to monolayer confluency in T-175 culture flasks [Corning, Corning, N.Y.] (approx. 1×10^8 cells/flask) in Dulbecco's Modified Eagle's Medium (DMEM) [Sigma, St. Louis, Mo.] in a humidified incubator (37° C., 5% CO2/95% air). Media are supplemented with 10% fetal calf serum [Hyclone, Logan, Utah], and antibiotics (10,000 U/ml penicillin and 10 mg/ml streptomycin) (Sigma, St. Louis, Mo.). For tissue culture passage, monolayer cells are detached by gentle trypsinization, resuspended in complete media, and split 1:10 into new T-flasks. Cultures are passaged weekly, and fed fresh media every 2 to 3 days. To initiate tumor growth in SCID mice, 1×10^6 cells are injected s.c. bilaterally into the flanks (inguinal region) of the recipient animals using a 1 ml syringe with a 27 gauge needle. Ex vivo experiments can be performed with animals containing tumors weighing between 500 mg and 1 g, as estimated by caliper measurement (tumor weight=(π/6)*abc, where a, b and c are the tumor length, width and height, respectively).
# Tissue distribution of the compounds is measured in SCID mice (average weight, 20-25 g) bearing human tumors as follows. The candidate radioligands (20 uCi in 0.4 ml 0.9% NaCl) are injected into the tail vein of tumor-bearing mice. […] Tissues (blood, heart, liver, lungs, kidneys, bone, thyroid, muscle, brain and tumor) are excised, rinsed in saline, and blotted dry. The tissues are weighed, placed into 12×75 mm glass vials, the radioactivity determined with a gamma counter, and the percent dose/gram calculated. Total activities of blood and muscle are calculated by assuming that they account for 7% and 40% of the total body mass, respectively.
# Tables 3-7 show the results of the biodistribution studies with the separate enantiomers of anti-2-[^18F]FACPC and racemic anti-2-[^18F]FACBC as a comparison in SCiD mice implanted in their flanks with A549, human lung cancer cells and DU145, human prostate cancer cells.
# [4] = tested on: tumor cells; assay: overall conclusion of uptake studies in cancer cells in vitro; assay type: cell-based
# Method: In the in vitro studies the uptake rate of each amino acid compound is measured in each tumor line, as well as the dominant transport mechanisms of each tumor cell line. After trypsinization, cells are resuspended in serum-free media, then counted on a hemocytometer, with viability assessed through Trypan blue staining. Approximately 1×10^7 cells are exposed to each compound (15 μCi) in 15 ml of amino acid free media for 5, 10, 15, 30 and 60 minutes at 37° C. Cells are then centrifuged at 150×g for 5 minutes, rinsed in 5 ml cold-saline, recentrifuged, resuspended in 3 ml saline, and placed into 12×75 mm glass vials (Fisher, Pittsburgh, Pa.). The vials are placed in a Cobra-II gamma counter (Packard, Meriden, Conn.), with the activity per cell number determined. Inhibition studies determine the dominant transport mechanism (L, A or ASC) for each line [Martarello et al. (2002) supra; McConathy et al. (2003) supra]. For these studies, cells are exposed to the compounds for 30 minutes in amino acid free media containing one of three inhibitors (2-amino-norbornyl-2-carboxylic acid (BCH), 10 mM; α-(methylamino)-isobutyric acid (MeAlB), 10 mM; and an alanine-serine-cysteine mixture 1:1:1 (acs), 10 mM). Saline washes are performed as described above, and the filtered cells' radioactivity determined on the gamma counter. Comparisons with the 30 minute control uptake indicate the major transporters used. Results of these studies are found in FIGS. 1-18.
# Approximately 10^6 cells were exposed to the [^18F]amino acid candidate (5 μCi) in 3 ml of amino acid-free media±transporter inhibitors (10 mM) for 30 minutes under incubation conditions by the method previously described (McConathy, J.; Martarello, L.; Malveaux, E.; Camp, V.; Bowers, G.; Olson, J.; Goodman, M. (2002) Radiolabeled amino acids for tumor imaging with PET: radiosynthesis and biological evaluation of [^18F]2-amino-3-fluoro-2-methylpropanoic acid and [^18F]3-fluoro-2-methyl-2-(methylamino)-propanoic acid. J. Med. Chem. 45, 2240-2249). The inhibition studies determined the dominant transport mechanism (L, A) for each candidate PET amino acid for each tumor model. 2-Methylaminoisobutyric acid (MeAlB) and 2-aminobicyclo-[2.2.1]-heptane-2-carboxylic acid (BCH) serve as inhibitors for the “A”, “L” transport systems, respectively.
# [5] = tested on: MDA MB231 Human Breast carcinoma cells; assay: in vitro amino acid uptake in MDA MB231 cells; assay type: cell-based
# Method: Compounds have been evaluated in vitro for tumor binding specificity (i.e. uptake cells) using a variety of tumor cell lines available in the art, along with reference compounds such as Me-AlB and BCH. Detailed description of these assays can be found in Martarello et al. (2002) Journal of Medicinal Chemistry, 45:2250-2259 and McConathy et al. (2003) Nuclear Medicine and Biology, 30:477-490. […]
# as §3, §4
# [6] = A549 cells implanted subcutaneously in flanks of SCID mice
# [7] = 15 min, listed as Anti-2-[^18F]FACPC Enantiomer 1
# [8] = 60 min, listed as Anti-2-[^18F]FACPC Enantiomer 1
compound,measurement,setting,value
NC1(C(=O)O)CCC1[18F] (racemic) [racemic anti-2-[^18F]FACBC],% Dose uptake per 0.5 × 10−6 Cells,[1],8.3 % Dose/0.5 × 10^−6
same,% Dose uptake per 0.5 × 10−6 Cells,[2],7.4 % Dose/0.5 × 10^−6
same,"tissue distribution, blood",[3]; 15 min,3.39 percent dose/gram
same,"tissue distribution, bone",[3]; 15 min,2.07 percent dose/gram
same,"tissue distribution, brain",[3]; 15 min,0.27 percent dose/gram
same,"tissue distribution, heart",[3]; 15 min,2.71 percent dose/gram
same,"tissue distribution, kidney",[3]; 15 min,10.12 percent dose/gram
same,"tissue distribution, liver",[3]; 15 min,3.15 percent dose/gram
same,"tissue distribution, lung",[3]; 15 min,4.23 percent dose/gram
same,"tissue distribution, muscle",[3]; 15 min,1.38 percent dose/gram
same,"tissue distribution, pancreas",[3]; 15 min,48.45 percent dose/gram
same,"tissue distribution, spleen",[3]; 15 min,7.91 percent dose/gram
same,"tissue distribution, tumor",[3]; 15 min,5.11 percent dose/gram
same,"tissue distribution, blood",[3]; 30 min,2.43 percent dose/gram
same,"tissue distribution, bone",[3]; 30 min,1.64 percent dose/gram
same,"tissue distribution, brain",[3]; 30 min,0.26 percent dose/gram
same,"tissue distribution, heart",[3]; 30 min,2.24 percent dose/gram
same,"tissue distribution, kidney",[3]; 30 min,5.48 percent dose/gram
same,"tissue distribution, liver",[3]; 30 min,2.70 percent dose/gram
same,"tissue distribution, lung",[3]; 30 min,3.03 percent dose/gram
same,"tissue distribution, muscle",[3]; 30 min,1.44 percent dose/gram
same,"tissue distribution, pancreas",[3]; 30 min,44.17 percent dose/gram
same,"tissue distribution, spleen",[3]; 30 min,5.03 percent dose/gram
same,"tissue distribution, tumor",[3]; 30 min,4.29 percent dose/gram
same,"tissue distribution, blood",[3]; 60 min,1.09 percent dose/gram
same,"tissue distribution, bone",[3]; 60 min,1.02 percent dose/gram
same,"tissue distribution, brain",[3]; 60 min,0.16 percent dose/gram
same,"tissue distribution, heart",[3]; 60 min,1.41 percent dose/gram
same,"tissue distribution, kidney",[3]; 60 min,2.25 percent dose/gram
same,"tissue distribution, liver",[3]; 60 min,1.47 percent dose/gram
same,"tissue distribution, lung",[3]; 60 min,1.40 percent dose/gram
same,"tissue distribution, muscle",[3]; 60 min,0.90 percent dose/gram
same,"tissue distribution, pancreas",[3]; 60 min,20.64 percent dose/gram
same,"tissue distribution, spleen",[3]; 60 min,2.86 percent dose/gram
same,"tissue distribution, tumor",[3]; 60 min,3.04 percent dose/gram
same,"tissue distribution, blood",[3]; 120 min,0.41 percent dose/gram
same,"tissue distribution, bone",[3]; 120 min,0.62 percent dose/gram
same,"tissue distribution, brain",[3]; 120 min,0.15 percent dose/gram
same,"tissue distribution, heart",[3]; 120 min,0.86 percent dose/gram
same,"tissue distribution, kidney",[3]; 120 min,1.03 percent dose/gram
same,"tissue distribution, liver",[3]; 120 min,0.59 percent dose/gram
same,"tissue distribution, lung",[3]; 120 min,0.56 percent dose/gram
same,"tissue distribution, muscle",[3]; 120 min,0.77 percent dose/gram
same,"tissue distribution, pancreas",[3]; 120 min,9.80 percent dose/gram
same,"tissue distribution, spleen",[3]; 120 min,1.48 percent dose/gram
same,"tissue distribution, tumor",[3]; 120 min,2.30 percent dose/gram
same,uptake of radioactivity in the tumors compared with muscle,"[3]; A549 tumors, SCID mice, time points sampled post injection",greater than muscle
same,selective uptake in tumor cells,[4],selectively taken up in tumor cells
"N[C@]1(C(=O)O)CCC[C@@H]1[18F] (single isomer, unassigned; enantiomer 1) [Enantiomer 1, anti-2-[^18F]FACPC]",% Dose uptake per 0.5 × 10−6 Cells,[1],28 % Dose/0.5 × 10^−6
same,% Dose uptake per 0.5 × 10−6 Cells,[5],9.1 % Dose/0.5 × 10^−6
same,% Dose uptake per 0.5 × 10−6 Cells,[2],15 % Dose/0.5 × 10^−6
same,in vivo uptake compared with enantiomer 2,[3]; [6],greater uptake than enantiomer 2
same,in vivo uptake compared with racemic 2-[^18F]FACBC,[3]; [6],significantly higher in vivo uptake than racemic 2-[^18F]FACBC
same,"tissue distribution, blood",[3]; [7],3.98 percent dose/gram
same,"tissue distribution, bone",[3]; [7],3.08 percent dose/gram
same,"tissue distribution, brain",[3]; [7],0.81 percent dose/gram
same,"tissue distribution, heart",[3]; [7],3.78 percent dose/gram
same,"tissue distribution, kidney",[3]; [7],8.0 percent dose/gram
same,"tissue distribution, liver",[3]; [7],4.01 percent dose/gram
same,"tissue distribution, lung",[3]; [7],4.09 percent dose/gram
same,"tissue distribution, muscle",[3]; [7],2.47 percent dose/gram
same,"tissue distribution, pancreas",[3]; [7],57.83 percent dose/gram
same,"tissue distribution, spleen",[3]; [7],12.52 percent dose/gram
same,"tissue distribution, tumor",[3]; [7],9.77 percent dose/gram
same,"tissue distribution, blood",[3]; [8],1.59 percent dose/gram
same,"tissue distribution, bone",[3]; [8],2.43 percent dose/gram
same,"tissue distribution, brain",[3]; [8],0.81 percent dose/gram
same,"tissue distribution, heart",[3]; [8],2.49 percent dose/gram
same,"tissue distribution, kidney",[3]; [8],4.02 percent dose/gram
same,"tissue distribution, liver",[3]; [8],2.16 percent dose/gram
same,"tissue distribution, lung",[3]; [8],2.07 percent dose/gram
same,"tissue distribution, muscle",[3]; [8],2.43 percent dose/gram
same,"tissue distribution, pancreas",[3]; [8],27.09 percent dose/gram
same,"tissue distribution, spleen",[3]; [8],4.13 percent dose/gram
same,"tissue distribution, tumor",[3]; [8],7.16 percent dose/gram
same,selective uptake in tumor cells,[4],selectively taken up in tumor cells
same,in vitro uptake in cancer cells compared with enantiomer 2,[4]; in vitro in cancer cells,greater uptake than enantiomer 2
